Test results as given in patent publication US9034906B2, “EP4 agonist” (Asahi Glass Company, Limited, priority 2008, dated 2015).

Legend:
[1] = system: dextran sodium sulfate-induced colitis; experiment: Dextran sodium sulfate-induced colitis model in mice (BALB/c), prophylactic; format: in vivo, mouse; conditions: 2.2 w/v % DSS
Description: The prophylactic effect of compound F on ulcerative colitis was examined in dextran sodium sulfate-induced colitis model.
Female BALB/c mice (6 weeks old, Japan SLC) were purchased, acclimated for 1 week and used for the study. Except the normal group, the mice were allowed to freely drink a dextran sodium sulfate (to be abbreviated as DSS, MP Biochemicals, M.W. 36,000-50,000, Lot No. 3439J) solution prepared to 2.2 w/v % for 9 days to induce colitis. Compound F was orally administered at doses of 0.1, 0.3 and 1 mg/kg, once a day, daily, from the start day of DSS drinking (day 0) to one day before autopsy (day 9). To the control group was orally administered a solvent (1 vol % ethanol solution) at 10 mL/kg in the same manner.
Thus, to determine the level of diarrhea, the stool was graded into 6 levels; normal (score 0), spherical stool being not less than 50% (score 1), banana-shaped stool being less than 50% (score 2), banana-shaped stool being not less than 50% (score 3), muddy stool (score 4), watery stool (score 6) (stool consistency score). The fecal occult blood (including proctorrhagia) was graded using fecal occult blood slide 5 Shionogi II (Shionogi & Co., Ltd.) into 6 levels; negative (no change of the slide color from yellow, score 0), weakly positive (slightly blue green, score 1), positive (blue green, score 2), moderately positive (clear blue green, score 3), strongly positive (instantaneous color change to dark blue with color developer, score 4), and proctorrhagia (score 5). The sum of the stool consistency score and occult blood score was defined as the stool score. Eight to 10 animals were used for each group, and the results were expressed as average±standard deviation. On the day of autopsy, after laparotomy under ether anesthesia and blood collection, the mice were exsanguinated to death. Then the large intestines were dissected from just below the cecum to the anus and the length thereof was measured.

[2] = system: dextran sodium sulfate-induced colitis; experiment: Remission/relapse model of dextran sodium sulfate-induced colitis in mice, therapeutic; format: in vivo, mouse; conditions: compound F 1 mg/kg, SASP 100 mg/kg, oral once a day for 50 days
Description: Next, therapeutic effect of compound F on colitis was studied in a chronic model. Female BALB/c mice, 6 weeks old, body weight about 20 g (Japan SLC) were purchased, acclimated for 1 week and used for the study. The mice were divided into a colitis induction group and a normal group. The colitis induction group was allowed to freely drink a 2.6 w/v % DSS (MP Biochemicals, M.W. 36,000-50,000, Lot No. 4556J) solution to induce colitis. On day 8 when the stool score (defined in Example 23) of the colitis induction group reached about 4.5, the mice were subdivided into a control group, a compound F 1 mg/kg administration group and a salazosulfapyridine (SIGMA, Lot No. 085K1930, hereinafter to be abbreviated as SASP) 100 mg/kg administration group. Then the mice were allowed to freely drink distilled water instead of DSS solution for 9 days (remission period). After the grouping, the stool score was evaluated every 3-4 days. […]
Compound F at a dose of 1 mg/kg and SASP at a dose of 100 mg/kg were orally administered once a day, daily, for 50 days from the initial remission period (day 8 from the start of 2.6 w/v % DSS drinking) to the fifth remission period (day 57 from the start of 2.6 w/v % DSS drinking). […] The remission ratio (%) was calculated as a ratio of mice in remission in each group. […]

eye = experiment: Local irritative effect on the eye in rabbits; format: in vivo; conditions: rabbit, single ocular instillation
Protocol: Japanese white rabbits (male, 10 weeks old, BIOTEC Co., Ltd.) were purchased, acclimated for 1 week and used for the study. Compound F solution (0.01 w/v %) was instilled once into the cornea of both eyes at a volume of 50 μL/eye with a micropipette. The intraocular pressure of the right eye was measured and the local irritative effect on the eye was evaluated using the left eye. After surface anesthesia with oxybupranol (Benoxil 0.4% instillation solution), the intraocular pressure was measured before ocular instillation and 1, 2, 3, 4, 6 and 8 hr after the instillation using a pneumatonometer (Alcon Ltd.). In addition, the local irritative effect on the eye was evaluated by scoring conjunctival congestion, conjunctival edema, cornea opacity, iris congestion, excretion and eye closure performance. For the evaluation, phosphate buffer was used for the solvent control group, and isopropyl unoprostone (Rescula eye drops, Santen Pharmaceutical Co., Ltd.) was used for comparison. Six animals were used for each group and the results were expressed as average.

[3] = system: concanavalin A-induced hepatitis; experiment: Concanavalin A-induced hepatitis model in mice, prophylactic; format: in vivo, mouse; conditions: BALB/c mice, oral 1 hr before Con A; compound F 1 mg/10 mL/kg, prednisolone 5 mg/10 mL/kg
Protocol: The prophylactic effect of compound F on hepatitis was investigated using concanavalin A (hereinafter Con A)-induced hepatitis model.
BALB/c mice (female, 7 weeks old, Japan SLC) were purchased, acclimated for 1 week and used for the study. Except the no-induction group, Con A (type IV, Sigma-Aldrich) dissolved in saline was administered from the tail vein of the mice at a dose of 12.5 mg/10 mL/kg to induce hepatitis. Twenty hr later, the mice were subjected to laparotomy under ether anesthesia. A 0.5 mL of blood sample was collected from the caudal vena cava and heparinized plasma was obtained to measure plasma ALT and AST activities. Test substances were compound F (1 mg/10 mL solution), prednisolone (Nacalai Tesque, 5 mg/10 mL suspension (with 0.5 w/v % methylcellulose)) and water for injection (administered to the control group), which were orally administered at a volume of 10 mL/kg 1 hr before Con A injection. Seven to 9 animals were used for each group. After logarithmic transformation of the data, one-way analysis of variance was performed for statistical evaluation.

Question: For `Cc1cccc([C@@H](C)[C@H](O)/C=C/[C@@H]2[C@@H]3[C@H](C[C@H]2O)O/C(=C\CCCc2nnn[nH]2)C3(F)F)c1` [Compound F, 4-[(Z)-(1S,5R,6R,7R)-6-[(1E,3R,4R)-3-hydroxy-4-(m-tolyl)-1-pentenyl]-7-hydroxy-2-oxa-4,4-difluoro-bicyclo[3.3.0]octan-3-ylidene]-1-(tetrazol-5-yl)butane], which “Suppression of the increase in the stool score” value ([1]; oral 0.1 mg/kg once a day) is on record?
Answer: suppressive tendency

Question: What about the “Effect on shortening of the large intestine” value ([1]; oral 0.1, 0.3 and 1 mg/kg once a day) of the same compound?
Answer: dose-dependent suppressive effect

Question: And the “Suppression of the increase in the stool score” value ([1]; oral 0.3 and 1 mg/kg once a day)?
Answer: significant

Question: And the “Effect on stool score in remission and relapse periods” value [2]?
Answer: decreased the stool score early in the remission period, and suppressed an increase in the score in the relapse period

Question: And the “Local irritant effect on the eye” value (eye)?
Answer: conjunctival edema and eye closure were observed 1 hr after the instillation in some animals

Question: And the “Effect on increase of plasma ALT and plasma AST activities” value [3]?
Answer: significantly and strongly suppressed the increase
